# From PubChem BioAssay (NCI)
#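 Interpolation was linear, between the two tested concentrations surrounding the appropriate level; five concentrations were tested over 48 hours in 96-well plates. Abbreviation: GI50, concentration required for 50% inhibition of growth. The concentration for full growth arrest is given as TGI.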
# Tests used:
# Assay in all cases: inhibition of tumour cell growth, NCI panel, 48 h
# SK-OV-3 ovarian = tested on: SK-OV-3 ovarian
# HL-60(TB) leukemia = tested on: HL-60(TB) leukemia
# OVCAR-3 ovarian = tested on: OVCAR-3 ovarian
# SNB-19 CNS = tested on: SNB-19 CNS
# NCI-H460 lung = tested on: NCI-H460 lung
# SF-539 CNS = tested on: SF-539 CNS
# COLO 205 colon = tested on: COLO 205 colon
# HT29 colon = tested on: HT29 colon
# UACC-62 melanoma = tested on: UACC-62 melanoma
# CAKI-1 renal = tested on: CAKI-1 renal
SMILES,TGI (SK-OV-3 ovarian) [µM],TGI (HL-60(TB) leukemia) [µM],TGI (OVCAR-3 ovarian) [µM],TGI (SNB-19 CNS) [µM],TGI (NCI-H460 lung) [µM],TGI (SF-539 CNS) [µM],TGI (COLO 205 colon) [µM],TGI (HT29 colon) [µM],TGI (UACC-62 melanoma) [µM],TGI (CAKI-1 renal) [µM],GI50 (SK-OV-3 ovarian) [µM],GI50 (HL-60(TB) leukemia) [µM],GI50 (OVCAR-3 ovarian) [µM],GI50 (CAKI-1 renal) [µM],GI50 (SNB-19 CNS) [µM],GI50 (NCI-H460 lung) [µM],GI50 (SF-539 CNS) [µM],GI50 (COLO 205 colon) [µM],GI50 (HT29 colon) [µM],GI50 (UACC-62 melanoma) [µM]
CN(C)CCNC(=O)c1cccc2c(=O)c3ccccc3oc12,> 100,> 90.6,> 100,97.7,> 79.5,> 100,19.4,98.7,> 76.2,–,–,–,–,–,–,–,–,–,–,–
CC(=O)C(C(c1ccccc1)N1CCOCC1)N1CCOCC1 (centres undefined),> 100,> 100,> 100,> 100,36.3,> 100,> 100,> 100,> 100,> 100,–,–,–,–,–,–,–,–,–,–
CC1(C)[C@@H]2CC[C@]1(C)[C@H](OC(=O)CSC#N)C2,> 100,–,> 100,> 100,> 100,67.9,> 100,> 100,> 100,> 100,–,–,–,–,–,–,–,–,–,–
COC1OC(CS(=O)(=O)O)C(O)C(O)C1O (centres undefined),> 100,> 100,> 100,> 100,> 100,–,> 100,> 100,> 100,> 100,–,–,–,–,–,–,–,–,–,–
CC1=C2C(O)C(C(C)C(=O)N(C)C)CCC2(C)C=CC1=O (centres undefined),> 100,> 100,> 100,> 100,> 100,> 100,> 100,> 100,> 100,> 100,–,–,–,–,–,–,–,–,–,–
CCC1C[N+]23CCc4c([nH]c5ccccc45)C2CC1CC3 (centres undefined),> 100,–,> 100,–,> 100,–,> 100,> 100,> 100,> 100,–,–,–,–,–,–,–,–,–,–
CCCC(C)c1ccc(OCCCCCCN2CCNCC2)cc1 (centres undefined),7.12,3.54,3.87,13.6,3.39,3.46,3.42,3.74,3.71,4.45,2.57,1.75,1.78,1.99,3.2,1.65,1.71,1.65,1.66,1.95
Cc1ccc(S(=O)(=O)Nc2cccc3c(=O)[nH]cnc23)cc1,> 100,> 100,> 100,> 100,> 100,> 100,> 100,> 100,> 100,> 100,–,–,–,–,–,–,–,–,–,–
CCOP(=Nc1ccc(N(C)C)cc1)(OCC)OCC,> 100,–,> 100,> 100,> 100,–,> 100,–,> 100,> 100,–,–,–,–,–,–,–,–,–,–
O=C(c1ccccc1)c1ccc2n[se]nc2c1,> 100,25.9,–,> 100,–,43,84.1,> 100,> 100,> 100,–,–,–,–,–,–,–,–,–,–
